Columns and labels:
[1] = test system: Ba/F3_CSF-1R (stably expressing human CSF-1R kinase); test: Cell proliferation assay, Ba/F3_CSF-1R; format: cell-based; conditions: BaF3, 72 h, Ba/F3_CSF-1R cells, 72 hours treatment; read-out: CSF-1R BaF3 EC50
CSF-1R = CSF-1R (Homo sapiens (Human), UniProt P07333); test: Biochemical HTRF kinase assay, CSF-1R; conditions: recombinant human CSF-1R;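 note: enzyme incubated with inhibitor plus a substrate and ATP mix for one hour at room temperature before HTRF detection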
c-Kit = c-Kit (Homo sapiens (Human), UniProt P10721); test: Biochemical HTRF kinase assay, c-Kit; conditions: for IC50: recombinant human protein, read-out: cKit IC50; for cKit Fold: selectivity: IC50 of cKit as multiple of IC50 of CSF-1R;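 for all read-outs here: enzyme reaction with substrate and ATP run in 384-well plates for 1 hour at room temperature, kinase activity detected by HTRF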
FLT3 = FLT3 (Homo sapiens (Human), UniProt P36888); test: Biochemical HTRF kinase assay, FLT3; conditions: for IC50: recombinant human protein; for FLT3 Fold: selectivity: IC50 of FLT3 as multiple of IC50 of CSF-1R
PDGFRβ = PDGFRβ (Homo sapiens (Human), UniProt P09619); test: Biochemical HTRF kinase assay, PDGFRβ; conditions: for IC50: recombinant human protein, read-out: PDGFR-1β IC50; for PDGFR-1β Fold: selectivity: IC50 of PDGFR-1β as multiple of IC50 of CSF-1R;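 for all read-outs here: kinase reaction with substrate/ATP mix run 1 h at room temperature in 384-well format, HTRF signal detection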
EOC2 cell = test: Cell proliferation assay, EOC2; format: cell-based, mouse; conditions: Mus musculus, 72 h, EOC2 cells, 72 hours treatment; read-out: ECO2 EC50

Sequence of FLT3 (P36888 27-993): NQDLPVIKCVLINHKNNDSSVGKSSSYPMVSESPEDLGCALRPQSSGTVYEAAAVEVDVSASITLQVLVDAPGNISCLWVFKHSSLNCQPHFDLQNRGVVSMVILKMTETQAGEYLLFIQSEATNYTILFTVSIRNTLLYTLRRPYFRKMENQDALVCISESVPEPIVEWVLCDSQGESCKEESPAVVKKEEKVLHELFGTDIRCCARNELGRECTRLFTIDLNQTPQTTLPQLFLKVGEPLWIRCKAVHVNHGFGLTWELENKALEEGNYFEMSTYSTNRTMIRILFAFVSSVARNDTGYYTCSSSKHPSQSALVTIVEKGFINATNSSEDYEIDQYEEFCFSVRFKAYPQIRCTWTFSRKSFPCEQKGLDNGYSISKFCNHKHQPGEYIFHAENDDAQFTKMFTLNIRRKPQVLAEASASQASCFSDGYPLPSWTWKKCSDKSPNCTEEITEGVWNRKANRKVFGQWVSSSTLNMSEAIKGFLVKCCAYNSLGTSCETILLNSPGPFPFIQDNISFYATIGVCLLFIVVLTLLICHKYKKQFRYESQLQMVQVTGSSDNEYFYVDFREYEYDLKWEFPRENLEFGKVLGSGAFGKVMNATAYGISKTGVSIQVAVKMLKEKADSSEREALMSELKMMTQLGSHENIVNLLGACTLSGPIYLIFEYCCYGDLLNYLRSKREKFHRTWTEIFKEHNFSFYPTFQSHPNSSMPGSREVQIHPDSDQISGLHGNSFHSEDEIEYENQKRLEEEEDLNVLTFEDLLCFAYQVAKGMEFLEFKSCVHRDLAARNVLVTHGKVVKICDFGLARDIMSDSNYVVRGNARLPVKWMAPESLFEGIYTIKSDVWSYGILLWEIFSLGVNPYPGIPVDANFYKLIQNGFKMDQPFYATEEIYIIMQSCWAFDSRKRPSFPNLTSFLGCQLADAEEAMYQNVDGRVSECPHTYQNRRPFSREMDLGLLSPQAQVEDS
Sequence of PDGFRβ (P09619 33-1106): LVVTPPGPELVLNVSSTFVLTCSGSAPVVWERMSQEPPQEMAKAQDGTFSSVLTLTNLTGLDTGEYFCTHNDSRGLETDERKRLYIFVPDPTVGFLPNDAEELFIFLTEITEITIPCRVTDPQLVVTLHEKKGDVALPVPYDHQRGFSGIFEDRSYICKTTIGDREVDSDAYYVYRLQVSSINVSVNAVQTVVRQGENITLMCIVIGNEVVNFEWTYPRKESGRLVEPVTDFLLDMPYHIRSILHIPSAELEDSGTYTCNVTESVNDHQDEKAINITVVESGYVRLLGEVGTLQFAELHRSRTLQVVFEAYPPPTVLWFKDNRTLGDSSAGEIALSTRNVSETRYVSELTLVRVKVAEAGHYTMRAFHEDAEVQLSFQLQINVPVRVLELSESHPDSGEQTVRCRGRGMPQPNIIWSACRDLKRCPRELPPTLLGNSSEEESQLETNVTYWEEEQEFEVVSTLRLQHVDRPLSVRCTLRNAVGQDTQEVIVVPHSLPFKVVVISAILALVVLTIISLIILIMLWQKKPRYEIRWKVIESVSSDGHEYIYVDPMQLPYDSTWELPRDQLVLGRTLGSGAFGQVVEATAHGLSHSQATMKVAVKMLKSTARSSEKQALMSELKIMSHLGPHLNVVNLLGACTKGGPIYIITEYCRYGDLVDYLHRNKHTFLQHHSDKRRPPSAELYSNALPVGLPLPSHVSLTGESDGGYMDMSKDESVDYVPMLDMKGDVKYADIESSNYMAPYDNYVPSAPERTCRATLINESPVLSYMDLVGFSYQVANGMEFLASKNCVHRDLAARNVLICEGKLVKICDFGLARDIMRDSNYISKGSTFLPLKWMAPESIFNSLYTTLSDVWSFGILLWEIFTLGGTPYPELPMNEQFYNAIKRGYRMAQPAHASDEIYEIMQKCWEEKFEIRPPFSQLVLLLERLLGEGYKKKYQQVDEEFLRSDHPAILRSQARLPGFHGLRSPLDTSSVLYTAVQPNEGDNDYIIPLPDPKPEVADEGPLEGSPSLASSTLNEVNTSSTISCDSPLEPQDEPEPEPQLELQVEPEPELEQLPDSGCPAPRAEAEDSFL
Sequence of CSF-1R (P07333 20-972): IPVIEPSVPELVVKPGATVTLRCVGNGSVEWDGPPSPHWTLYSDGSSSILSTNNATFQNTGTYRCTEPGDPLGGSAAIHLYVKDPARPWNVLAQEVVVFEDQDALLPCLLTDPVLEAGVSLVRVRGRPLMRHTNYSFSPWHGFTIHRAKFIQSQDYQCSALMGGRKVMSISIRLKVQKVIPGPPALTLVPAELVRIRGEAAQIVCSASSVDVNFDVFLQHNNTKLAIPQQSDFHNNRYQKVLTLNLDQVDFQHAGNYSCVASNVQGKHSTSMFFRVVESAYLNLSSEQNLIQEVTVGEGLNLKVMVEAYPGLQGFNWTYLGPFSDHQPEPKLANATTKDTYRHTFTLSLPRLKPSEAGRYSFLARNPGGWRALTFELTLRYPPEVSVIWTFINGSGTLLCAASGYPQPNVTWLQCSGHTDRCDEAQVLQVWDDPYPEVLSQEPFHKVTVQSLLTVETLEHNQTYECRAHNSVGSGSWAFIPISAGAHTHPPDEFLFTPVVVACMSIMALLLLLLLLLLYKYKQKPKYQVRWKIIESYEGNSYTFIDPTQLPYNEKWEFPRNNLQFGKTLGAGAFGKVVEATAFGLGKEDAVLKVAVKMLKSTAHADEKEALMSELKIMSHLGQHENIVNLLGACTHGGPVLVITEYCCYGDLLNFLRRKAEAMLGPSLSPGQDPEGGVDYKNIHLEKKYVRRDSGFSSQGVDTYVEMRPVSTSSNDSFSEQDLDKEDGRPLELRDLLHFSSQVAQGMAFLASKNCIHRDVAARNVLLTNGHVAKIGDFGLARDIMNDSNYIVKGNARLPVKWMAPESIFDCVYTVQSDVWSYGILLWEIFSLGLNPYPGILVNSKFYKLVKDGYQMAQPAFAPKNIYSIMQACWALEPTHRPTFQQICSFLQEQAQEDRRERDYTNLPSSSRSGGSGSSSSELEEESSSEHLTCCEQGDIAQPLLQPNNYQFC
Sequence of c-Kit (P10721 26-976): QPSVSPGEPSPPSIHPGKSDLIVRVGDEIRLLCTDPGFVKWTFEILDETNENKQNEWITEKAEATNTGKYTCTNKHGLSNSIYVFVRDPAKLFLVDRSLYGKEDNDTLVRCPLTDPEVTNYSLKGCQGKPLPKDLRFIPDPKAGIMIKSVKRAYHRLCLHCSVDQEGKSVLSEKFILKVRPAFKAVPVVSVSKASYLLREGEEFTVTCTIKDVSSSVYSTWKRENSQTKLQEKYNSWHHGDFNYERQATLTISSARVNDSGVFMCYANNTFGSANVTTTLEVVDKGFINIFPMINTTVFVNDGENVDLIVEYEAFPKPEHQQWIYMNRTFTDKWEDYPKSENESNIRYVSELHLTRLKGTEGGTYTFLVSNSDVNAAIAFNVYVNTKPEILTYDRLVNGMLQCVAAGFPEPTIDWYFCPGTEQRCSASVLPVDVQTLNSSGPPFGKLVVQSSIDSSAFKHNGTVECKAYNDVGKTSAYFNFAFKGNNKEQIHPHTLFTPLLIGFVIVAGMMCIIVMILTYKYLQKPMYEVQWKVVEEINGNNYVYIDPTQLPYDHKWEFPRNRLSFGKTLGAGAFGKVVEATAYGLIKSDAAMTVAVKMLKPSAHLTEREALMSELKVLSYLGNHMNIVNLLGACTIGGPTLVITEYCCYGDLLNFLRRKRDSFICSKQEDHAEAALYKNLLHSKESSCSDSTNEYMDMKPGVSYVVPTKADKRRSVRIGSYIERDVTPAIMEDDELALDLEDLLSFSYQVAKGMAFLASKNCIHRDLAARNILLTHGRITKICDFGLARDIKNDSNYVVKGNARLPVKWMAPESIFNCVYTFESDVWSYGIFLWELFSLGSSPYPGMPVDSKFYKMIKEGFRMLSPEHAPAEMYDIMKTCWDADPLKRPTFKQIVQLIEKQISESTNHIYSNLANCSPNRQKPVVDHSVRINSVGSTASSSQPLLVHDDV

Row | Structure (SMILES) | EC50 [1] [nM] | IC50 (CSF-1R; Table 2) [nM] | IC50 (CSF-1R; Table 3) [nM] | IC50 (c-Kit) [nM] | cKit Fold (c-Kit) [fold] | IC50 (FLT3) [nM] | FLT3 Fold (FLT3) [fold] | IC50 (PDGFRβ) [nM] | PDGFR-1β Fold (PDGFRβ) [fold] | EC50 (EOC2 cell) [nM]
1 | COc1cnc2c(Cc3cnc(OCc4ccc(OC(F)F)cn4)c(OC)c3)ccnc2c1 [Example 56] | 131 | 2.2 | 2.2 | > 1000 | >100 | > 1000 | >100 | 312 | >100 | 31.2
2 | COc1cnc2c(Cc3cnc(OCc4ccc(C5CC5)cn4)c(OC)c3)ccnc2c1 [Example 59] | 41.5 | 4.4 | 4.4 | > 1000 | >100 | > 1000 | >100 | 349 | 79 | 42.3
3 | COc1cnc2c(Cc3cnc(OCc4ccc(C5CC5(F)F)cn4)c(OC)c3)ccnc2c1 (stereo not shown) [Example 66] | 89.1 | 3 | 3 | 948 | >100 | > 1000 | >100 | 73.6 | 24.5 | 62.7
4 | COc1cnc2c(Cc3cnc(OCc4cc5n(n4)CCC5)c(OC)c3)ccnc2c1 [Example 72] | 74.6 | 2.2 | 2.2 | > 1000 | >100 | > 1000 | >100 | > 1000 | >100 | 58.9
5 | [2H]C([2H])([2H])Oc1cc(Cc2ccnc3cc(OC)cnc23)cnc1OCc1ccc(OC)cn1 [Example 74] | 100 | 3.3 | 3.3 | > 1000 | >100 | > 1000 | >100 | > 1000 | >100 | 33.3
6 | [2H]C([2H])([2H])Oc1ccc(COc2ncc(Cc3ccnc4cc(OC)cnc34)cc2OC)nc1 [Example 78] | 143 | 6.7 | 6.7 | > 1000 | >100 | > 1000 | >100 | 947 | >100 | 48.4
7 | [2H]C([2H])([2H])Oc1cnc2c(Cc3cnc(OCc4ccc(OC)cn4)c(OC)c3)ccnc2c1 [Example 79] | 118 | 3.6 | 3.6 | > 1000 | >100 | > 1000 | >100 | 684 | >100 | 60.4
8 | COc1cnc2c(Cc3cnc(OCc4cc(C)n(C)n4)c(OC)c3)ccnc2c1 [Example 82] | 161 | 4.6 | 4.6 | > 1000 | >100 | > 1000 | >100 | > 1000 | >100 | 116
9 | COc1cnc2c(Cc3cnc(OCc4cc(C(C)C)no4)c(OC)c3)ccnc2c1 [Example 83] | 26.7 | 1.2 | 1.2 | > 1000 | >100 | > 1000 | >100 | 158 | >100 | 37
10 | COc1cnc2c(Cc3cnc(OCc4cnc5c(c4)OCCN5C)c(OC)c3)ccnc2c1 [Example 87] | 86.3 | 0.83 | 0.83 | > 1000 | >100 | > 1000 | >100 | 208 | >100 | 92
11 | COc1cnc2c(Cc3cnc(OCc4cc(C)n(C5COC5)n4)c(OC)c3)ccnc2c1 [Example 88] | 76.7 | 4.9 | 4.9 | > 1000 | >100 | > 1000 | >100 | > 1000 | >100 | 116
12 | COc1cnc2c(Cc3cnc(OCc4cc(C(C)C)n(C)n4)c(OC)c3)ccnc2c1 [Example 93] | 72.9 | 2.1 | 2.1 | > 1000 | >100 | > 1000 | >100 | > 1000 | >100 | 18.3
13 | COc1ccc(COc2ncc(Cc3ccnc4cc(N(C)C)cnc34)cc2OC)nc1 [Example 100, 8-((5-methoxy-6-((5-methoxypyridin-2-yl)methoxy)pyridin-3-yl)methyl)-N,N-dimethyl-1,5-naphthyridin-3-amine] | 17.1 | 2.2 | 2.2 | 875 | >100 | > 1000 | >100 | 378 | >100 | 10
14 | COc1cnc2c(Cc3cnc(OCc4cc5n(n4)CC4CC54)c(OC)c3)ccnc2c1 (stereo not shown) [Example 101] | 77.7 | 1.9 | 1.9 | 715 | >100 | > 1000 | >100 | 839 | >100 | 48.3
15 | COc1cnc2c(Cc3cnc(OCc4cc5n(n4)C[C@H](F)C5)c(OC)c3)ccnc2c1 [Example 112] | 168 | 4.7 | 4.7 | > 1000 | >100 | > 1000 | >100 | 874 | >100 | 102
16 | COc1cnc2c(Cc3cnc(OCc4cc5n(n4)C[C@@H](OC)C5)c(OC)c3)ccnc2c1 [Example 121] | 41.1 | 19.9 | 19.9 | > 1000 | >50 | > 1000 | >50 | > 1000 | >50 | 15.2

From patent US20250360145A1, “CSF-1R INHIBITORS AND USES THEREOF” (Myrobalan Therapeutics, Inc., priority 2022, published 2025)
